The values below come from USRE47689E1, “Compounds for treating spinal muscular atrophy” (PTC Therapeutics, Inc., priority 2011, dated 2019).

The subject of assay [1] is SMN2 minigene (full length SMN2 minigene mRNA containing SMN2 exon 7). In words: SMN2 minigene mRNA splicing RT-qPCR assay in cultured cells. The assay is classed as cell-based, human. The settings on record: Homo sapiens, HEK293-H; HEK293H cells stably transfected with SMN2-A minigene; 24 hours; 7-point concentration curve; 1.5-fold relative to vehicle-treated cells; read-out: EC1.5x for production of full length SMN2 mRNA. The protocol: The reverse transcription-quantitative PCR-based (RT-qPCR) assay is used to quantify the level of the full length SMN2 minigene mRNA containing SMN2 exon 7 in a HEK293H cell line stably transfected with said minigene and treated with a test compound.
Protocol. HEK293H cells stably transfected with the SMN2-A minigene construct described above (10,000 cells/well) are seeded in 200 μL of cell culture medium (DMEM plus 10% FBS, with 200 μg/mL hygromycin) in 96-well flat-bottom plates and the plate is immediately swirled to ensure proper dispersal of cells, forming an even monolayer of cells. Cells are allowed to attach for at least 4-6 hours. […] A solution of test compound (1 μL, 200× in DMSO) is added to each cell-containing well and the plate is incubated for 24 hours in a cell culture incubator (37° C., 5% CO2, 100% relative humidity). 2 replicates are prepared for each test compound concentration. The cells are then lysed in Cells-To-Ct lysis buffer and the lysate is stored at −80° C.
The combination of these three oligonucleotides detects only SMN1 or SMN2 minigenes (RT-qPCR) and will not detect endogenous SMN1 or SMN2 genes.
The SMN forward and reverse primers are used at final concentrations of 0.4 μM.
The SMN2-minigene GAPDH mix (15 μL total volume) is prepared by combining 7.5 μL of 2×RT-PCR buffer, 0.4 μL of 25×RT-PCR enzyme mix, 0.75 μL of 20×GAPDH primer-probe mix, 4.0075 μL of water, 2 μL of 10-fold diluted cell lysate, 0.06 μL of 100 μM SMN forward primer, 0.06 μL of 100 μM SMN reverse primer, and 0.225 μL of 100 μM SMN probe.
PCR is carried out at the following temperatures for the indicated time: Step 1: 48° C. (15 min); Step 2: 95° C. (10 min); Step 3: 95° C. (15 sec); Step 4: 60° C. (1 min); then repeat Steps 3 and 4 for a total of 40 cycles.
Each reaction mixture contains both SMN2-A minigene and GAPDH primers/probe sets (multiplex design), allowing simultaneous measurement of the levels of two transcripts.
Two SMN spliced products are generated from the SMN2 minigene. The first spliced product containing exon 7, corresponding to full length SMN2 mRNA, is called SMN2mini FL. The second one lacking exon 7 is called SMN2mini Δ7.
The amplification efficiency E is calculated from the slope of the amplification curve for SMN2mini FL and GAPDH individually. The abundances of SMN2mini FL and GAPDH are then calculated as […], where Ct is the threshold value for each amplicon. The abundance of SMN2mini FL is normalized to GAPDH abundance. The normalized SMN2mini FL abundance from test compound-treated samples is then divided by normalized SMN2mini FL abundance from vehicle-treated cells to determine the level of SMN2 FL mRNA relative to vehicle control.
An EC1.5x for production of full length SMN2 mRNA between >3 μM and ≤30 μM is indicated by one star (*), an EC1.5x between >1 μM and ≤3 μM is indicated by two stars (**), an EC1.5x between >0.3 μM and ≤1 μM is indicated by three stars (***), an EC1.5x between >0.1 μM and ≤0.3 μM is indicated by four stars (****) and an EC1.5x≤0.1 μM is indicated by five stars (*****).
A general note: Quantitative PCR measures a nucleic acid by following its amplification.

In another assay the test system is Smn protein. The experiment in a line: Smn protein assay in cultured cells (SMN HTRF). The assay is classed as cell-based, human. The settings on record: 48 hours; for EC1.5x (concentration giving 1.5-fold Smn protein increase): SMA Type 1 patient fibroblast cells (GM03813), 7-point concentration curve, SMN HTRF, concentration producing 1.5 times Smn protein vs DMSO vehicle control, read-out: EC1.5x for Smn protein expression; for maximum fold (Fold) increase of Smn protein: SMA patient fibroblast cells, 7-point concentration data, fold increase relative to vehicle control (SMN HTRF). Here is the method: The SMN HTRF (homogeneous time resolved fluorescence) assay is used to quantify the level of Smn protein in SMA patient fibroblast cells treated with test compounds.
Protocol. Cells are thawed and cultured in DMEM-10% FBS for 72 hours. Cells are trypsinized, counted and resuspended to a concentration of 25,000 cells/mL in DMEM-10% FBS. […] 1 μL of test compound solution is transferred to cell-containing wells and cells are incubated for 48 hours in a cell culture incubator (37° C., 5% CO2, 100% relative humidity). Triplicate samples are set up for each test compound concentration. After 48 hours, the supernatant is removed from the wells and 25 μL of the RIPA lysis buffer, containing protease inhibitors, is added to the wells and incubated with shaking at room temperature for 1 hour. 25 μL of the diluent is added and then 35 μL of the resulting lysate is transferred to a 384-well plate, where each well contains 5 μL of the antibody solution (1:100 dilution of anti-SMN d2 and anti-SMN kryptate in SMN reconstitution buffer). The plate is centrifuged for 1 minute to bring the solution to the bottom of the wells, then incubated overnight at room temperature. Fluorescence for each well of the plate at 665 nm and 620 nm is measured on an EnVision multilabel plate reader (Perkin-Elmer).
The normalized fluorescence signal is calculated for each sample, Blank and vehicle control well by dividing the signal at 665 nm by the signal at 620 nm. Normalizing the signal accounts for possible fluorescence quenching due to the matrix effect of the lysate. The ΔF value (a measurement of Smn protein abundance) for each sample well is calculated by subtracting the normalized average fluorescence for the Blank control wells from the normalized fluorescence for each sample well and then dividing this difference by the normalized average fluorescence for the Blank control wells. The resulting ΔF value for each sample well represents the Smn protein abundance from test compound-treated samples. The ΔF value for each sample well is divided by the ΔF value for the vehicle control wells to calculate the fold increase in Smn protein abundance relative to the vehicle control.
An EC1.5x for Smn protein expression between >3 μM and ≤10 μM is indicated by one star (*), an EC1.5x between >1 and ≤3 μM is indicated by two stars (**), an EC1.5x between >0.3 μM and ≤1 μM is indicated by three stars (***) and an EC1.5x≤0.3 μM is indicated by four stars (****).
On the technique in general: In TR-FRET formats the signal depends on donor and acceptor labels being close together.

Molecules are shown by their SMILES. Where a name gives a salt, the structure may show the parent alone.

Take `Cc1cn2cc(-c3cc4ccc(N5C[C@@H](C)N[C@@H](C)C5)cc4oc3=O)nc2c(C)n1` [Compound 517, 3-(6,8-dimethylimidazo[1,2-a]pyrazin-2-yl)-7-[(3R,5S)-3,5-dimethylpiperazin-1-yl]-2H-chromen-2-one]: the EC (1.5-fold) in assay [1] was < 0.1 µM. In the assay on Smn protein, the EC1.5x (concentration giving 1.5-fold Smn protein increase) was < 300 nM and the “maximum fold (Fold) increase of Smn protein” value (from here on “maximum fold (Fold) increase”) is “***** (fold increase >1.65)”.
Turning to `Cc1cc2sc(-c3cc4ccc(N5CCNCC5)cc4oc3=O)cc2c(C)n1` [Compound 817, 3-(4,6-dimethylthieno[3,2-c]pyridin-2-yl)-7-(piperazin-1-yl)-2H-chromen-2-one], in assay [1], the EC (1.5-fold) is < 0.1 µM. Also, in the assay with Smn protein, the “maximum fold (Fold) increase” value is “** (fold increase between >1.2 and ≤1.35)”.
Turning to `COc1ccc(-c2cc3c(F)cc(N4CCN(C)CC4)cc3oc2=O)cc1OC` [Compound 405, 3-(3,4-dimethoxyphenyl)-5-fluoro-7-(4-methylpiperazin-1-yl)-2H-chromen-2-one], the EC (1.5-fold) in assay [1] was 3 to 30 µM. In the assay with Smn protein, the “maximum fold (Fold) increase” value is “** (fold increase between >1.2 and ≤1.35)”.
As for `Cc1cn2cc(-c3cc4ccc(N5CC6(CNC6)C5)cc4oc3=O)nc2c(C)n1` [Cpd 971, 7-(2,6-diazaspiro[3.3]hept-2-yl)-3-(6,8-dimethylimidazo[1,2-a]pyrazin-2-yl)-2H-chromen-2-one], the EC (1.5-fold) in assay [1] is < 0.1 µM. In the assay on Smn protein, the EC1.5x (concentration giving 1.5-fold Smn protein increase) was < 300 nM and the “maximum fold (Fold) increase” value was “***** (fold increase >1.65)”.
On to `Cc1cc2sc(-c3cc4ccc(N5CCN(C)CC5)cc4oc3=O)cc2c(C)n1` [Compound 819, 3-(4,6-dimethylthieno[3,2-c]pyridin-2-yl)-7-(4-methylpiperazin-1-yl)-2H-chromen-2-one], for which the EC (1.5-fold) in assay [1] is < 0.1 µM. Moreover, the “maximum fold (Fold) increase” value with Smn protein is “*** (fold increase between >1.35 and ≤1.5)”.
`O=c1oc2cc(OC[C@@H]3CCCN3)ccc2cc1-c1nc2ccccc2s1` [Compound 56, 3-(1,3-benzothiazol-2-yl)-7-[(2S)-pyrrolidin-2-ylmethoxy]-2H-chromen-2-one]: in assay [1], the EC (1.5-fold) fell in the range of 3 to 30 µM. Besides, in the assay on Smn protein, the “maximum fold (Fold) increase” value is “* (maximum fold increase of ≤1.2)”.
Take `CCN1CCN(c2ccc3cc(-c4cn5cc(C)nc(C)c5n4)c(=O)oc3c2)C[C@@H]1C(C)C` [Compound 810, 3-(6,8-dimethylimidazo[1,2-a]pyrazin-2-yl)-7-[(3S)-4-ethyl-3-(propan-2-yl)piperazin-1-yl]-2H-chromen-2-one]: the EC (1.5-fold) in assay [1] lay in the range of 0.3 to 1 µM. Moreover, in the assay on Smn protein, the EC1.5x (concentration giving 1.5-fold Smn protein increase) is 1000 to 3000 nM; the “maximum fold (Fold) increase” value is “**** (fold increase between >1.5 and ≤1.65)”.
Turning to `Cc1cn2cc(-c3cc4ccc(N5CC6(CN(C)C6)C5)cc4oc3=O)nc2c(C)n1` [Compound 972, 3-(6,8-dimethylimidazo[1,2-a]pyrazin-2-yl)-7-(6-methyl-2,6-diazaspiro[3.3]hept-2-yl)-2H-chromen-2-one], the EC (1.5-fold) in assay [1] fell in the range of 0.3 to 1 µM. Moreover, in the assay with Smn protein, the EC1.5x (concentration giving 1.5-fold Smn protein increase) was in the range of 3000 to 10000 nM; the “maximum fold (Fold) increase” value was “*** (fold increase between >1.35 and ≤1.5)”.
Take `CCCN1CCC(c2ccc3cc(-c4cn5cc(C)ncc5n4)c(=O)oc3c2)CC1` [Compound 887, 3-(6-methylimidazo[1,2-a]pyrazin-2-yl)-7-(1-propylpiperidin-4-yl)-2H-chromen-2-one]: in assay [1], the EC (1.5-fold) was < 0.1 µM. For the same molecule, in the assay on Smn protein, the EC1.5x (concentration giving 1.5-fold Smn protein increase) is < 300 nM and the “maximum fold (Fold) increase” value is listed as “***** (fold increase >1.65)”.
As to `CC(C)c1nccc(-c2cc3ccc(N4CCNCC4)cc3oc2=O)n1.Cl` [Compound 279, 7-(piperazin-1-yl)-3-[2-(propan-2-yl)pyrimidin-4-yl]-2H-chromen-2-one hydrochloride], the EC (1.5-fold) in assay [1] was 1 to 3 µM. Further, the “maximum fold (Fold) increase” value in the assay on Smn protein is on record as “* (maximum fold increase of ≤1.2)”.
The matching figures for `O=c1oc2cc(N3CCNCC3)ccc2cc1-c1nc2ccccc2s1` [Cpd 4, 3-(1,3-benzothiazol-2-yl)-7-(piperazin-1-yl)-2H-chromen-2-one hydrochloride]: 1 to 3 µM and “* (maximum fold increase of ≤1.2)”.
Turning to `CCc1nc(C)cn2cc(-c3cc4ccc(N5CCNCC5)cc4oc3=O)nc12` [Compound 824, 3-(8-ethyl-6-methylimidazo[1,2-a]pyrazin-2-yl)-7-(piperazin-1-yl)-2H-chromen-2-one], the EC (1.5-fold) in assay [1] was < 0.1 µM. Besides, in the assay on Smn protein, the EC1.5x (concentration giving 1.5-fold Smn protein increase) was < 300 nM; the “maximum fold (Fold) increase” value was “**** (fold increase between >1.5 and ≤1.65)”.
Regarding `Cc1cn2cc(-c3cc4ccc(C5CCN(C)CC5)cc4oc3=O)nc2c(C)n1` [Compound 748, 3-(6,8-dimethylimidazo[1,2-a]pyrazin-2-yl)-7-(1-methylpiperidin-4-yl)-2H-chromen-2-one], in assay [1], the EC (1.5-fold) is < 0.1 µM. In addition, in the assay with Smn protein, the EC1.5x (concentration giving 1.5-fold Smn protein increase) is < 300 nM and the “maximum fold (Fold) increase” value is “***** (fold increase >1.65)”.
The matching figures for `Cc1cn2cc(-c3cc4ccc(N5CCNCC5)cc4oc3=O)nc2c(C)n1` [Compound 515, 3-(6,8-dimethylimidazo[1,2-a]pyrazin-2-yl)-7-(piperazin-1-yl)-2H-chromen-2-one]: < 0.1 µM, < 300 nM and “***** (fold increase >1.65)”.
As to `CN1CCCN(c2ccc3cc(-c4cn5ccncc5n4)c(=O)oc3c2)CC1` [Compound 455, 3-(imidazo[1,2-a]pyrazin-2-yl)-7-(4-methyl-1,4-diazepan-1-yl)-2H-chromen-2-one], the EC (1.5-fold) in assay [1] was < 0.1 µM. Besides, in the assay on Smn protein, the EC1.5x (concentration giving 1.5-fold Smn protein increase) fell in the range of 300 to 1000 nM; the “maximum fold (Fold) increase” value was “**** (fold increase between >1.5 and ≤1.65)”.
